Source: patent US20230257396A1, “MACROCYCLES AND THEIR USE” (BLOSSOMHILL THERAPEUTICS, INC., priority 2020, published 2023)
Positions count from the first letter of the chain named.

Assays:
Test in all cases: KINOMEscan kinase binding assay (Eurofins/DiscoveRx), % Ctrl
kinases [1] = target: T1, kinases (Homo sapiens, UniProt P16234)
T1 construct: purchased Eurofins/DiscoveRx; host or cells: E. coli BL21-derived host (T7 phage display) for most kinases; HEK-293 for the rest
How it was run: (§1)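 Competition binding: DNA- or phage-tagged kinases (T7 phage in E. coli BL21, or HEK-293-expressed) with immobilized biotinylated ligand beads and test compound, 1 h at room temperature. Bead-bound kinase eluted and quantified by qPCR; % Ctrl = (compound − positive control)/(negative control − positive control) ×100 at a single compound concentration.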

kinases [2] = target: T2, kinases (Homo sapiens, UniProt P36888, D835Y)
T2 construct: purchased Eurofins/DiscoveRx; host or cells: E. coli BL21-derived host (T7 phage display) for most kinases; HEK-293 for the rest
T2 sequence (P36888 27-993 D835Y): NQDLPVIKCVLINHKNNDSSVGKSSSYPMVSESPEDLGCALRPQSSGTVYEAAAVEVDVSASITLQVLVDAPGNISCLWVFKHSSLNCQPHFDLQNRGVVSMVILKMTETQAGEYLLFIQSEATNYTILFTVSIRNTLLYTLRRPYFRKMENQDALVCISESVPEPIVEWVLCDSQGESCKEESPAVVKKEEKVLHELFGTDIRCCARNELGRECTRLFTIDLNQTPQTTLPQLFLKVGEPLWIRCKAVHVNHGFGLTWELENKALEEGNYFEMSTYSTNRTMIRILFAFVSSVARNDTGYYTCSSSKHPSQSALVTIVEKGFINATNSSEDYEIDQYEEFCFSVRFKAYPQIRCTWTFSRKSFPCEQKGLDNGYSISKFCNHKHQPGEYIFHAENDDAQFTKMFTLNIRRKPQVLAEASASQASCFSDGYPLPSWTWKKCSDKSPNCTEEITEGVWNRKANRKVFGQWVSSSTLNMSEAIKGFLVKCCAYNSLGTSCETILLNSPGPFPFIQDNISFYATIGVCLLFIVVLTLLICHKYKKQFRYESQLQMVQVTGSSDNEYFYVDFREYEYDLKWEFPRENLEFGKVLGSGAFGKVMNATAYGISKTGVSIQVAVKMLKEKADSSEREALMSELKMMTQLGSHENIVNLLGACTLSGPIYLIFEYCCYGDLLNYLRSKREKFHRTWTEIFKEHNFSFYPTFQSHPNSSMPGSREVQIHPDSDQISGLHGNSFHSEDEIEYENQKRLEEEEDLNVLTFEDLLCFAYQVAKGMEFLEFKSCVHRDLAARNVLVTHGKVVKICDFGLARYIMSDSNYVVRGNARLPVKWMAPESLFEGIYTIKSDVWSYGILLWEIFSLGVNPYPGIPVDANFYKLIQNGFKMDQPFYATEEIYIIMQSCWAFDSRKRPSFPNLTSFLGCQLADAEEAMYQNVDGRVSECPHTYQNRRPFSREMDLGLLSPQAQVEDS
How it was run: as §1

kinases [3] = target: T3, kinases (Homo sapiens, UniProt P00533)
T3 construct: purchased Eurofins/DiscoveRx; host or cells: E. coli BL21-derived host (T7 phage display) for most kinases; HEK-293 for the rest
How it was run: as §1

kinases [4] = target: T4, kinases (Homo sapiens, UniProt P36888, D835H)
T4 construct: purchased Eurofins/DiscoveRx; host or cells: E. coli BL21-derived host (T7 phage display) for most kinases; HEK-293 for the rest
T4 sequence (P36888 27-993 D835H): T2 sequence (P36888 27-993 D835Y) with Y809H
How it was run: as §1

kinases [5] = test system: kinases
How it was run: as §1

[6] = 1 μM; EGFR(L747-E749del, A750P)
[7] = 1 μM; EGFR(L747-S752del, P753S)

T3 sequence (P00533 25-1210): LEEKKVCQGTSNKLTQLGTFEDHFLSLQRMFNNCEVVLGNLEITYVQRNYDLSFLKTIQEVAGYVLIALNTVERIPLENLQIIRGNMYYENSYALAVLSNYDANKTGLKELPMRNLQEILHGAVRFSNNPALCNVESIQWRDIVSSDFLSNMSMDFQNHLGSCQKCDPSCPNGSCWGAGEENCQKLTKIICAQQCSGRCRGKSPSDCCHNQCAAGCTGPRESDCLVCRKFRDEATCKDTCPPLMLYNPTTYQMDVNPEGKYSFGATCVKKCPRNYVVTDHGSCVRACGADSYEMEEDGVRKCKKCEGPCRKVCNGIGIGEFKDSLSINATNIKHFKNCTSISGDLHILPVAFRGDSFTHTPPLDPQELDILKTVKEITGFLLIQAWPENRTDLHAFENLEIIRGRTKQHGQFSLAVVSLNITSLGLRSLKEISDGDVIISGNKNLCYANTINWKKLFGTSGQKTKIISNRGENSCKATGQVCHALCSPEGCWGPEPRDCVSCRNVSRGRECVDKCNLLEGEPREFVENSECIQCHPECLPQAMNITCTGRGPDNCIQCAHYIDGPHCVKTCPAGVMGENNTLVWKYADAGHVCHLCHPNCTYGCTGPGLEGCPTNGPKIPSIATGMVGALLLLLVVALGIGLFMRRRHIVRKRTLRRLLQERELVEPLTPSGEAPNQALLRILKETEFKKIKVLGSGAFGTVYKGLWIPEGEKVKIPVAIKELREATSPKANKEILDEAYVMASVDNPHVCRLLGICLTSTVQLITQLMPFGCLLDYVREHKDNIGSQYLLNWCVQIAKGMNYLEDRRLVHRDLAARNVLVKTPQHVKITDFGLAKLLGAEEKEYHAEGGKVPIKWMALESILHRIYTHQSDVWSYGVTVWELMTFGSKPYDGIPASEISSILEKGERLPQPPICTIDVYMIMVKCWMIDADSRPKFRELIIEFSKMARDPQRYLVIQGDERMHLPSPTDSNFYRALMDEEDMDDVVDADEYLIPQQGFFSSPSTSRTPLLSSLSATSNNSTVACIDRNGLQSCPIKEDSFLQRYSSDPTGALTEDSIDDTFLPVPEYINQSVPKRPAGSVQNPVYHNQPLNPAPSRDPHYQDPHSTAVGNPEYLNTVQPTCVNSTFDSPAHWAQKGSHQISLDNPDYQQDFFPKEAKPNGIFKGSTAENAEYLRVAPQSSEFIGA
T1 sequence (P16234 24-1089): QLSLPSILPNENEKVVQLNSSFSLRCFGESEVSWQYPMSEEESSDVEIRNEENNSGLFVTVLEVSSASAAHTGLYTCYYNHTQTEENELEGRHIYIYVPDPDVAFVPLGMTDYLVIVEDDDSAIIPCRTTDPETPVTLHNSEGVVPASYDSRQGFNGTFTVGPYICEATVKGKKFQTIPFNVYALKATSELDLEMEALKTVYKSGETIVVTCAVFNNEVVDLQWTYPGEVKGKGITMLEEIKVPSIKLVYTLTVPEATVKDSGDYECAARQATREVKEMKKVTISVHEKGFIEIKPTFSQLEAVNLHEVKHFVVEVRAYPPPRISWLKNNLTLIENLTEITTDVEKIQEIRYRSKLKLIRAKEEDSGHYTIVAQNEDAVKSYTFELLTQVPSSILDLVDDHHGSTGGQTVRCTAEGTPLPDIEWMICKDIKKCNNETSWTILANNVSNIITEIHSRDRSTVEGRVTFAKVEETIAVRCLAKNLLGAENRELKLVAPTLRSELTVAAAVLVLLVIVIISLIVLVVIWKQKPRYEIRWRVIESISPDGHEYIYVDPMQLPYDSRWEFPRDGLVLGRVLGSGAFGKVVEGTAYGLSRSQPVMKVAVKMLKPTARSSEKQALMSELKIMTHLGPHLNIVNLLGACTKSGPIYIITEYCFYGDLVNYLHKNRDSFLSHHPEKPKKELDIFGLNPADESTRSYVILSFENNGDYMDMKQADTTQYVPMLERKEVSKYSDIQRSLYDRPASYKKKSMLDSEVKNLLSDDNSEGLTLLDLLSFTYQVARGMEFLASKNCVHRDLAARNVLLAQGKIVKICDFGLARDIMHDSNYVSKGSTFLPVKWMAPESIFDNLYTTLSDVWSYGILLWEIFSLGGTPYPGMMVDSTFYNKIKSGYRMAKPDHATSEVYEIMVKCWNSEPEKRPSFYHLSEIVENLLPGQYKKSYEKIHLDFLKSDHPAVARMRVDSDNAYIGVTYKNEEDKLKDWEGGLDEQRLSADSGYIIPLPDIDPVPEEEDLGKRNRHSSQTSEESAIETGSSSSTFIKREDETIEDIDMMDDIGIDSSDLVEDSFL

Row | % Ctrl, PDGFRA (kinases [1]; 1 μM; PDGFRA) [% Ctrl] | % Ctrl, FLT3(D835Y) (kinases [2]; 1 μM; FLT3(D835Y)) [% Ctrl] | % Ctrl, EGFR (kinases [3]; 1 μM; EGFR) [% Ctrl] | % Ctrl, FLT3(D835H) (kinases [4]; 1 μM; FLT3(D835H)) [% Ctrl] | % Ctrl, EGFR(L747-E749del, A750P) (kinases [5]; [6]) [% Ctrl] | % Ctrl, EGFR(L747-S752del, P753S) (kinases [5]; [7]) [% Ctrl] | % Ctrl, EGFR(L747-T751del, Sins) (kinases [5]; 1 μM; EGFR(L747-T751del, Sins)) [% Ctrl] | % Ctrl, FLT3(ITD) (kinases [5]; 1 μM; FLT3(ITD)) [% Ctrl] | % Ctrl, FLT3(ITD, D835V) (kinases [5]; 1 μM; FLT3(ITD, D835V)) [% Ctrl] | % Ctrl, FLT3(ITD, F691L) (kinases [5]; 1 μM; FLT3(ITD, F691L)) [% Ctrl] | SMILES | also measured
1 | 80 | 86 | 61 | 93 | 89 | 86 | 85 | 100 | 38 | 47 | Cc1cc2c([nH]1)/C=C1\C(=O)Nc3ccc(cc31)-c1ccnn1CCNCCNC2=O [Ex. 43, [19a(20)Z]-2-methyl-5,6,7,8,9,10-hexahydro-15,17-(ethanediylidene)pyrazolo[1,5-g]dipyrrolo[3,4-k:2′,3′-n][1,4,7]triazacyclohexadecine-4,19(1H,18H)-dione] | 
2 |  |  |  |  |  |  |  |  |  |  | Cc1cc2c([nH]1)/C=C1\C(=O)Nc3cc(Cl)c(cc31)OCCO[C@@H](C(=O)N1CCN(C)CC1)CN(C)C2=O [Ex. 138, [7R,16a(17)Z]-19-chloro-2,5-dimethyl-7-(4-methylpipearazine-1-carbonyl)-6,7,9,10-tetrahydro-1H-12,14-(ethanediylidene)dipyrrolo[3,2-i:3′,4′-l][1,4,7]dioxazacyclopentadecine-4,16(5H,15H)-dione] | % Ctrl, PDGFRA (kinases [1]; target PDGFRA; 1 μM): 75 % Ctrl; % Ctrl, FLT3(D835Y) (kinases [2]; target FLT3(D835Y); 1 μM): 45 % Ctrl; % Ctrl, EGFR (kinases [3]; target EGFR; 1 μM): 76 % Ctrl; % Ctrl, FLT3(D835H) (kinases [4]; target FLT3(D835H); 1 μM): 73 % Ctrl; % Ctrl, EGFR(L747-E749del, A750P) (kinases [5]; target EGFR(L747-E749del, A750P); 1 μM): 100 % Ctrl; % Ctrl, EGFR(L747-S752del, P753S) (kinases [5]; target EGFR(L747-S752del, P753S); 1 μM): 61 % Ctrl; % Ctrl, EGFR(L747-T751del, Sins) (kinases [5]; target EGFR(L747-T751del, Sins); 1 μM): 96 % Ctrl; % Ctrl, FLT3(ITD) (kinases [5]; target FLT3(ITD); 1 μM): 73 % Ctrl; % Ctrl, FLT3(ITD, D835V) (kinases [5]; target FLT3(ITD, D835V); 1 μM): 24 % Ctrl; % Ctrl, FLT3(ITD, F691L) (kinases [5]; target FLT3(ITD, F691L); 1 μM): 49 % Ctrl
3 | 7.7 | 2.3 | 52 | 0 | 31 | 50 | 59 | 0.85 | 0 | 0.6 | Cc1cc2c([nH]1)/C=C1\C(=O)Nc3cc(Cl)c(cc31)OCCOCCN(C)C2=O [Ex. 131, [16a(17)Z]-19-chloro-2,5-dimethyl-6,7,9,10-tetrahydro-1H-12,14-(ethanediylidene)dipyrrolo[3,2-i:3′,4′-l][1,4,7]dioxazacyclopentadecine-4,16(5H,15H)-dione] | 
4 |  |  |  |  |  |  |  |  |  |  | Cc1cc2c([nH]1)/C=C1\C(=O)Nc3ccc(cc31)-c1cnn(C)c1OCCCN(C)C2=O [Ex. 166, [3a(4)Z]-9,14-dimethyl-9,10,11,12-tetrahydro-14H-1,17-(ethanediylidene)pyrazolo[4,3-n]dipyrrolo[3,2-g:3′,4′-j][1,5]oxazacyclopentadecine-3,8(2H,5H)-dione] | % Ctrl, PDGFRA (kinases [1]; 1 μM; target PDGFRA): 50 % Ctrl; % Ctrl, FLT3(D835Y) (kinases [2]; 1 μM; target FLT3(D835Y)): 1.9 % Ctrl; % Ctrl, EGFR (kinases [3]; 1 μM; target EGFR): 70 % Ctrl; % Ctrl, FLT3(D835H) (kinases [4]; 1 μM; target FLT3(D835H)): 0.7 % Ctrl; % Ctrl, EGFR(L747-E749del, A750P) (kinases [5]; 1 μM; target EGFR(L747-E749del, A750P)): 62 % Ctrl; % Ctrl, EGFR(L747-S752del, P753S) (kinases [5]; 1 μM; target EGFR(L747-S752del, P753S)): 98 % Ctrl; % Ctrl, EGFR(L747-T751del, Sins) (kinases [5]; 1 μM; target EGFR(L747-T751del, Sins)): 90 % Ctrl; % Ctrl, FLT3(ITD) (kinases [5]; 1 μM; target FLT3(ITD)): 0.3 % Ctrl; % Ctrl, FLT3(ITD, D835V) (kinases [5]; 1 μM; target FLT3(ITD, D835V)): 0.6 % Ctrl; % Ctrl, FLT3(ITD, F691L) (kinases [5]; 1 μM; target FLT3(ITD, F691L)): 0 % Ctrl
5 | 7.7 | 0 | 61 | 0.05 | 22 | 48 | 54 | 0 | 0 | 0 | Cc1cc2c([nH]1)/C=C1\C(=O)Nc3ccc(cc31)-c1cnn(C)c1CNCCN(C)C2=O [Ex. 125, [3a(4)Z]-6,9,14-trimethyl-9,10,11,12,13,14-hexahydro-1,17-(ethanediylidene)pyrazolo[4,3-m]dipyrrolo[3,2-f:3′,4′-i][1,4]diazacyclopentadecine-3,8(2H,5H)-dione] | 
6 | 72 | 10 | 96 | 35 | 83 | 87 | 99 | 35 | 3.2 | 6.1 | Cc1cc2c([nH]1)/C=C1\C(=O)Nc3cc(Cl)c(cc31)OCCO[C@@H](C(=O)NC1CCNCC1)CN(C)C2=O [Ex. 134, [7R,16a(17)Z]-19-chloro-2,5-dimethyl-4,16-dioxo-N-(piperidin-4-yl)-4,5,6,7,9,10,15,16-octahydro-1H-12,14-(ethaneidylidene)dipyrrolo[3,2-i:3′,4′-l][1,4,7]dioxazacyclopentadecine-7-carboxamide] | 
7 | 100 | 72 | 98 | 88 | 9 | 100 | 74 | 93 | 100 | 39 | Cc1cc2c([nH]1)/C=C1\C(=O)Nc3cnc(cc31)-c1cnn(C)c1COCCNC2=O [Ex.123, [3a(4)Z]-6,14-dimethyl-10,11,13,14-tetrahydro-2H-17,1-(azenometheno)pyrazolo[4,3-m]dipyrrolo[3,2-f:3′,4′-i][1,4]oxazacyclopentadecine-3,8(5H,9H)-dione] | 
